The text below walks through data of ChEMBL document CHEMBL1135777, “Three-dimensional quantitative structure-activity relationships of mazindol analogues at the dopamine transporter” (J Med Chem, 2002).

For orientation: IC50 means the concentration needed to halve the response being measured.

The structures appear in SMILES notation.

Chain of Sodium-dependent dopamine transporter (P23977 whole entry): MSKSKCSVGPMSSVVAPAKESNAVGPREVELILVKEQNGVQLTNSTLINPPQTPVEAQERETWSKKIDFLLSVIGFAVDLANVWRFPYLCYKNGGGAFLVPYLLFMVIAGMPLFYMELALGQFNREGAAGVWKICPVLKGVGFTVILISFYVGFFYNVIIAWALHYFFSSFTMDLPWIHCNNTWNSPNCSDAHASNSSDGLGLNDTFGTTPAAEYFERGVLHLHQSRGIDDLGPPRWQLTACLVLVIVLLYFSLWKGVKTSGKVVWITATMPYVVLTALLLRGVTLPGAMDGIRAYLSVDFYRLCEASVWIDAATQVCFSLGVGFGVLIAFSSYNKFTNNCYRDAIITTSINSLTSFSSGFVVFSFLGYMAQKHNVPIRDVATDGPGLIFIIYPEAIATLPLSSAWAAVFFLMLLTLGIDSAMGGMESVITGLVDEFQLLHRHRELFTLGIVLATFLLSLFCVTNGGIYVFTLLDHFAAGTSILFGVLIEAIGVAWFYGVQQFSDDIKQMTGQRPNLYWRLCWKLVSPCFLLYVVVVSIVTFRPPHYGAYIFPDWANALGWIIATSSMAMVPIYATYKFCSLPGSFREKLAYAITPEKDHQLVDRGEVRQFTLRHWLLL

This assay has as its target Sodium-dependent dopamine transporter (Rattus norvegicus, UniProt P23977). Kind of assay: Ability to displace [3H]WIN-35428 from dopamine transporter in rat caudate putamen tissue. Format: tissue-based.
`CC(C)(C)C1(O)c2ccccc2C2=NCCN21` (configuration not stated) gave a concentration for half-maximal inhibition (IC50) of 9500 nM.

The molecule `Clc1ccc(Oc2ccccc2C2=NCCN2)cc1` showed an IC50 of 190 nM.

In turn, `Clc1ccc(Cc2ccccc2C2=NCCN2)cc1` came in with a half-maximal inhibitory concentration (IC50) of 4000 nM.

On to `OC1(c2ccccn2)c2ccccc2C2=NCCN21` (configuration not stated), for which the concentration for half-maximal inhibition (IC50) amounted to 3700 nM.

`COc1ccc(C2(O)c3ccccc3C3=NCCN32)cc1OC` (configuration not stated) showed an IC50 of 6900 nM.

`O=C(c1ccc(Cl)cc1)c1ccccc1-c1ncc[nH]1` yielded an IC50 of 2800 nM.

In turn, `OC(c1ccc(Cl)cc1)c1ccccc1C1=NCCN1` (stereo in doubt; 53) had a 50% inhibitory concentration (IC50) of 190 nM.

On to `Clc1ccc(Sc2ccccc2C2=NCCN2)cc1`, for which the IC50 worked out at 320 nM.

Take `Oc1ccc(C2(O)c3ccccc3C3=NCCCN32)cc1` (configuration not stated): the concentration for half-maximal inhibition (IC50) came to 3.4 nM.

`OC1(c2ccc(Cl)cc2)c2ccc3ccccc3c2C2=NCCN21` (configuration not stated) displayed a concentration for half-maximal inhibition (IC50) of 16 nM.

`OC1(c2ccc(Cl)cc2)c2ccccc2C2=N[C@@H]3CCCC[C@H]3N21` (some centres not stated) displayed a concentration for half-maximal inhibition (IC50) of 34 nM.

Consider `C=CCOc1ccc(C2(O)c3ccccc3C3=NCCCN32)cc1` (configuration not stated), for which the half-inhibitory concentration (IC50) turned out to be 72 nM.

Regarding `OC1(C23C[C@H]4C[C@@H](C2)C[C@@H](C3)C4)c2ccccc2C2=NCCN21` (some centres not stated), the IC50 came to 4900 nM.

In turn, `OC1(c2ccc3ccccc3c2)c2ccc3ccccc3c2C2=NCCN21` (configuration not stated) came in with a half-maximal inhibitory concentration (IC50) of 38 nM.

Turning to `OC1(c2ccc(COc3ccccc3)cc2)c2ccccc2C2=NCCN21` (configuration not stated), the IC50 came out at 720 nM.

The molecule `CC1(C)COC(c2ccccc2C(=O)c2ccc(Cl)cc2)=N1` returned an IC50 of 560 nM.

Consider `CN(C)Cc1ccc(C2(O)c3ccccc3C3=NCCN32)cc1` (configuration not stated), for which the IC50 amounted to 2800 nM.

On to `OC1(c2ccc(Cl)cc2)c2cccc3cccc(c23)C2=NCCCN21` (configuration not stated), for which the IC50 is 42 nM.

Molecule `OC1(c2ccncc2)c2ccccc2C2=NCCN21` (configuration not stated) displayed an IC50 of 63 nM.

Regarding `OC1(c2ccc(Cl)cc2)c2ccccc2C2=NCCCN21` (configuration not stated), the 50% inhibitory concentration (IC50) was determined as 1 nM.

In the case of `CC1(C)COC(c2ccc(C(=O)c3ccc(Cl)cc3)cc2)=N1`, the IC50 turned out to be 1900 nM.

Turning to `COc1ccc(C2(O)c3ccccc3C3=NCCCN32)cc1OC` (configuration not stated), the IC50 amounted to 87 nM.

`CC1(C)COC(c2cccc(C(O)c3ccc(Cl)cc3)c2)=N1` (configuration not stated) returned an IC50 of 16000 nM.

Turning to `COc1ccc(C2(O)c3ccccc3C3=NCCCN32)cc1` (configuration not stated), the half-maximal inhibitory concentration (IC50) was determined as 2.5 nM.

As to `OC1(c2cccc(C(F)(F)F)c2)c2ccccc2C2=NCCN21` (configuration not stated), the concentration for half-maximal inhibition (IC50) stood at 230 nM.

In turn, `O=C(c1ccc(Cl)cc1)c1cccc(C2=NCCN2)c1` had an IC50 of 2200 nM.

`OC1(c2ccc(OCc3ccccc3)cc2)c2ccccc2C2=NCCCN21` (configuration not stated) gave an IC50 of 100 nM.

In turn, `OC(c1ccc(Cl)cc1)c1ccc(C2=NCCN2)cc1` (configuration not stated) registered an IC50 of 1600 nM.

Turning to `OC1(c2cccnc2)c2ccccc2C2=NCCN21` (configuration not stated), the concentration for half-maximal inhibition (IC50) came out at 640 nM.

On to `COC(=O)c1ccc(C2(O)c3ccccc3C3=NCCN32)cc1` (configuration not stated), for which the IC50 worked out at 3300 nM.

Consider `OC1(c2ccc(Cl)cc2)c2ccc3ccccc3c2C2=NCCCN21` (configuration not stated), for which the IC50 was 37 nM.

The molecule `[O-][S+](c1ccc(Cl)cc1)c1ccccc1C1=NCCN1` (configuration not stated) registered a concentration for half-maximal inhibition (IC50) of 7300 nM.

`OC1(C/C=C/c2ccccc2)c2ccccc2C2=NCCN21` (configuration not stated) had a half-inhibitory concentration (IC50) of 9300 nM.

`OC1(c2ccc3ccccc3c2)c2ccccc2C2=NCCN21` (configuration not stated) displayed a concentration for half-maximal inhibition (IC50) of 23 nM.

Turning to `OC(c1ccc(Cl)cc1)c1ccccc1C1=NCCN1` (stereo in doubt; 54), the IC50 stood at 2700 nM.

For the molecule `O=S(=O)(c1ccc(Cl)cc1)c1ccccc1C1=NCCN1`, the IC50 came to 6500 nM.

The molecule `OC1(c2ccc(CN3CCCCC3)cc2)c2ccccc2C2=NCCCN21` (configuration not stated) came in with a half-maximal inhibitory concentration (IC50) of 1200 nM.

In the case of `OC1CN=C2c3ccccc3C(O)(c3ccc(Cl)cc3)N2C1` (configuration not stated), the concentration for half-maximal inhibition (IC50) came out at 10 nM.

Molecule `Cn1ccnc1-c1ccccc1C(=O)c1ccc(Cl)cc1` registered a half-inhibitory concentration (IC50) of 4300 nM.

Regarding `OC1(c2ccc(C(F)(F)F)cc2)c2ccccc2C2=NCCN21` (configuration not stated), the IC50 turned out to be 290 nM.

The molecule `CC1(C2(O)c3ccccc3C3=NCCN32)CCCCC1` (configuration not stated) yielded an IC50 of 3500 nM.

As to `Cc1ccc(C2(O)c3ccccc3C3=NCCN32)cc1` (configuration not stated), the IC50 turned out to be 93 nM.
